Laboratory results: PubChem BioAssay (NCI)
Several values for one entry are separate records, joined by “and”; a condition that tells them apart may be missing. Identical values can stand only once.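 All cell lines were grown in 96-well plates and treated with compound for 48 hours. At the GI50, growth is halved. TGI denotes the concentration required for complete inhibition of growth.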

Legend:
Test in all cases: DTP human tumour cell line panel, 48 h
EKVX NSCLC = tested on: EKVX NSCLC
HCC-2998 colon = tested on: HCC-2998 colon
HOP-92 NSCLC = tested on: HOP-92 NSCLC
T-47D breast = tested on: T-47D breast
BT-549 breast = tested on: BT-549 breast
NCI-H460 lung = tested on: NCI-H460 lung
MDA-MB-231 breast = tested on: MDA-MB-231 breast
DLD-1 colon = tested on: DLD-1 colon
DMS 114 small cell lung = tested on: DMS 114 small cell lung
HOP-18 NSCLC = tested on: HOP-18 NSCLC
SNB-78 CNS = tested on: SNB-78 CNS

Compound	GI50 (EKVX NSCLC) [µM]	TGI (EKVX NSCLC) [µM]	GI50 (HCC-2998 colon) [µM]	TGI (HCC-2998 colon) [µM]	GI50 (HOP-92 NSCLC)	TGI (HOP-92 NSCLC) [µM]	GI50 (T-47D breast) [µM]	TGI (T-47D breast) [µM]	GI50 (BT-549 breast) [µM]	TGI (BT-549 breast)	GI50 (NCI-H460 lung) [µM]	TGI (NCI-H460 lung) [µM]	GI50 (MDA-MB-231 breast) [µM]	TGI (MDA-MB-231 breast) [µM]	TGI (DLD-1 colon) [µM]	TGI (DMS 114 small cell lung) [µM]	TGI (HOP-18 NSCLC) [µM]	TGI (SNB-78 CNS) [µM]
Cc1cc(N2CCSCC2)nc(NC2CCCC(Nc3ccnc4cc(Cl)ccc34)C2)n1 (centres undefined)	2.7	10.8	1.81	3.63	1.65 µM	3.45	2.41	5.9	1.71	3.79 µM	1.97	4.13	1.95	3.89	–	–	–	–
O=c1[nH]c2cc(Cl)ccc2nc1/C(=N\O)C(O)c1ccc([N+](=O)[O-])cc1 (centres undefined)	–	> 100	–	> 100	–	–	–	–	–	–	–	> 100	–	–	> 100	> 100	–	–
COc1cccc(C2c3cc4c(cc3OC(N3CCCC3)C2C)OCO4)c1O (centres undefined)	–	> 84.9	–	46.9	–	41.5	–	> 94.9	–	> 43 µM	–	32.4	–	45.8	–	–	–	–
COc1cc(CNC2c3cc4c(cc3C(c3cc(OC)c(OC)c(OC)c3)[C@H]3C(=O)OCC23)OCO4)cc(OC)c1OC (some centres undefined)	–	–	–	13.1	–	> 100	–	–	–	–	–	–	–	–	> 100	0.444	> 100	–
CCN(CC)CCCNC(=O)c1c2c(n3ccccc13)C(=O)c1ncccc1C2=O	1.31	3.11	0.388	1.65	2.22 µM	4.87	1.34	3.61	1.94	4.06 µM	0.225	1.75	0.404	9.73	–	–	–	–
O=C1/C(=C\c2ccccn2)c2ccccc2N1c1c(Cl)cccc1Cl	3.47	17.8	1.86	3.3	–	6.28	2.6	9.66	2.21	4.88 µM	1.88	3.65	2.17	5.74	–	–	–	–
CC(C)(C)[Si](C)(C)OC1[C@@H](O[Si](C)(C)C(C)(C)C)[C@@H](CNC(=O)NC(=O)CCl)O[C@H]1n1cnc2c(NC(=O)Nc3ccccc3)ncnc21 (some centres undefined)	1.01	2.98	0.967	2.06	0.211 µM	0.9	1.01	2.17	0.962	1.79 µM	0.859	1.74	0.507	1.3	–	–	–	–
O=S1Nc2c(Cl)cc(Cl)c3c(Cl)cc(Cl)c(c23)N1	–	> 100	–	99.8	–	51	–	–	–	–	–	–	–	–	74.8	> 100	> 100	–
Cc1cc(CC(C)CC(C)(C)C)n(O)c(=O)c1 (centres undefined) (tested in a mixture with another compound)	0.889	25.4	2.6	17.7	0.174 µM	1.88	0.725	> 43.6	0.351	3.25 µM	0.331	10.9	0.45	> 48.5	–	–	–	–
Cc1cc(C)c(Cn2cnc3c(Cl)ncnc32)c(C)c1CCl	> 100	> 100	19	46.7	–	–	24.9	95.3	> 100	> 100 µM	32.7	> 100	> 100	> 100	–	–	–	–
Cc1nc(N2CCC3(CC2)CO[C@@H](C)[C@H]3N)c(CO)nc1Sc1ccnc(N)c1Cl	0.449	> 100	> 100	> 100	0.184 µM	2.12	32.4	> 100	6.56	> 100 µM	> 100	> 100	> 100	> 100	–	–	–	–
CNC(=O)Cc1nc(-c2cccc(NS(=O)(=O)c3c(F)cccc3F)c2F)c(-c2ccnc(Nc3ccccc3)n2)s1	22.4	> 50	7.94	28.1	0.355 µM	> 14.4	6.23	> 41.1	> 35.8	> 50 µM	14.8	> 50	1.04	> 15.3	–	–	–	–
CC1=NN(C(=O)c2ccc([N+](=O)[O-])cc2)C(=O)C1N=Nc1ccccc1C(=O)O (centres undefined)	–	> 100	–	> 100	–	97.2	–	–	–	–	–	> 100	–	–	> 100	> 100	–	> 100
COc1ccc(-c2c3c(n(C4OC(COC(C)=O)C(OC(C)=O)C(OC(C)=O)C4OC(C)=O)c(=S)c2C#N)CC(C)(C)CC3=O)cc1 (centres undefined)	–	97.5	–	> 100	32.7 µM and > 100 µM	> 100	–	> 100	–	93.3 µM and > 100 µM	–	> 100	–	> 100	–	–	–	–
OCC(O)c1nc2ccc3[nH]ncc3c2c2c1CCCC2 (centres undefined)	1.3	4.67	1.07	2.89	–	–	1.6	> 50	0.934	2.2 µM	1.49	5.43	1.75	> 50	–	–	–	–
Cc1cn2c(/C=N/N=C(N)N)c(-c3cccs3)nc2s1	8.8	21.1	1.77	3.24	–	–	5.51	25.9	8.07	22.8 µM	5.46	26.7	1.9	5.79	–	–	–	–
COc1ccc(C(=O)c2cc3c(N)c(C(=O)Nc4ccc(C)cc4)sc3nc2C)cc1	5.59	> 100	4.01	> 100	2.15 µM	21.9	4.78	91.7	4.83	41.8 µM	2.99	14.2	2.7	13.2	–	–	–	–
COc1cc(Nc2nc3ccccc3cc2C(=O)Nc2ccc(F)c(F)c2)cc(OC)c1OC	2.87	> 100	4.19	> 100	1.98 µM	5.75	1.84	6.39	2.48	6.54 µM	3.11	> 100	2.06	5.69	–	–	–	–
